Assays:
Type in all cases: in vivo
[1] = system: Tobacco Budworm [Heliothis virescens (Fabricius)] eggs; assay: Tobacco budworm egg test (TBW-E); settings: percent in solution
Description: Eggs: Paper towel patches of 2-day old eggs of the tobacco budworm were dipped in acetone solutions of the test compound and placed in petri dishes containing a portion of larval rearing medium. […] Test concentrations ranged from 0.1% downward.

[2] = system: Housefly [Musca domestica]; assay: Housefly insecticidal test (HF); settings: per 25 female houseflies, 48 hours
Protocol: Test compounds were diluted in acetone and aliquots pipetted onto the bottom of aluminum dishes. To ensure even spreading of the chemical on the bottom of the dishes, 1 ml of acetone containing 0.01% peanut oil was also added to each dish. After all solvents had evaporated, the dishes were placed in circular cardboard cages containing 25 female houseflies, 1-2 days old. The cages were covered on the bottom with cellophane and on the top with tulle netting, and each contained a sugar-water saturated cotton plug for maintenance of the flies. Mortality was recorded after 48 hours. Test levels ranged from 100μg/25 female houseflies downward.

[3] = system: Cabbage Looper [Trichoplusia ni (Hubner)]; assay: Cabbage looper test (CL); settings: second-instar larvae, 3-5 days, percent in solution

Structure (SMILES): CC(C)C(=Nc1ccc(C#N)cc1)OCc1cccc(Oc2cccc(Cl)c2)c1 [Compound 208]
- LC50 TBW E [1]: > 0.1%
- LC50 HF [2]: 27 µg
- LC50 CL [3]: 0.0035%

Structure (SMILES): CCC(C)C(=Nc1ccc(Cl)c(Cl)c1)OCc1cccc(Oc2ccc(F)cc2)c1 (stereo not drawn) [Compound 211]
- LC50 TBW E [1]: > 0.1%
- LC50 HF [2]: 61 µg
- LC50 CL [3]: 0.0017%

Structure (SMILES): CC(C)C(=Nc1ccc(F)c(F)c1)OCc1cccc(Oc2ccc(C#N)cc2)c1 [Compound 212]
- LC50 TBW E [1]: 0.045%
- LC50 HF [2]: 20 µg
- LC50 CL [3]: 0.0005%

Structure (SMILES): CC(C)C(=Nc1ccc(Cl)c(Cl)c1)OCc1cccc(Oc2ccc(F)cc2F)c1 [Compound 213]
- LC50 TBW E [1]: > 0.1%
- LC50 HF [2]: > 100 µg
- LC50 CL [3]: 0.00075%

Structure (SMILES): CC(C)C(=Nc1ccc(F)c(F)c1)OCc1cccc(Oc2ccc(F)cc2F)c1 [Compound 214]
- LC50 TBW E [1]: 0.04%
- LC50 HF [2]: 19 µg
- LC50 CL [3]: 0.0003%

Structure (SMILES): CC(C)C(=Nc1ccc(F)c(Cl)c1)OCc1cccc(Oc2cc(F)cc(F)c2)c1 [Compound 215]
- LC50 TBW E [1]: > 0.1%
- LC50 HF [2]: 75 µg
- LC50 CL [3]: 0.00075%

Structure (SMILES): CC(C)C(=Nc1ccc(Cl)c(Cl)c1)OCc1cccc(Oc2ccc(F)c(F)c2)c1 [Compound 218]
- LC50 TBW E [1]: 0.025%
- LC50 HF [2]: 25 µg
- LC50 CL [3]: 0.0003%

Structure (SMILES): COc1ccc(Oc2cccc(COC(=Nc3ccc(F)cc3)C(C)C)c2)cc1 [Compound 220]
- LC50 TBW E [1]: > 0.1%
- LC50 HF [2]: 85 µg
- LC50 CL [3]: 0.007%

Structure (SMILES): COc1ccc(Oc2cccc(COC(=Nc3ccc(F)c(Cl)c3)C(C)C)c2)cc1 [Compound 221]
- LC50 TBW E [1]: > 0.1%
- LC50 HF [2]: 62 µg
- LC50 CL [3]: 0.0027%

Structure (SMILES): CC(C)C(=Nc1ccc(C#N)c(F)c1)OCc1cccc(Oc2ccc(F)cc2)c1 [Compound 222]
- LC50 TBW E [1]: > 0.1%
- LC50 HF [2]: 32 µg
- LC50 CL [3]: 0.0015%

Structure (SMILES): COc1ccc(Oc2cccc(COC(=Nc3ccc(Cl)c(Cl)c3)C(C)C)c2)cc1 [Compound 223]
- LC50 TBW E [1]: > 0.1%
- LC50 HF [2]: 43 µg
- LC50 CL [3]: 0.008%

Structure (SMILES): CC(C)(Cl)C(=Nc1ccc(F)c(Cl)c1)OCc1cccc(Oc2ccc(F)cc2)c1 [Compound 224]
- LC50 TBW E [1]: > 0.1%
- LC50 HF [2]: > 100 µg
- LC50 CL [3]: 0.001%

Structure (SMILES): CC(C)C(=Nc1ccc(C#N)cc1)OCc1cccc(Oc2ccc(F)cc2)c1 [Compound 227]
- LC50 TBW E [1]: 0.1%
- LC50 HF [2]: 10 µg
- LC50 CL [3]: 0.0015%

Structure (SMILES): CC(C)C(=Nc1cccc(Br)c1)OCc1cccc(Oc2ccc(F)cc2)c1 [Compound 229]
- LC50 TBW E [1]: > 0.1%
- LC50 HF [2]: 20 µg
- LC50 CL [3]: 0.0005%

Structure (SMILES): Cc1ccc(Oc2cccc(COC(=Nc3ccc(F)cc3)C(C)C)c2)cc1 [Compound 231]
- LC50 TBW E [1]: > 0.1%
- LC50 HF [2]: > 100 µg
- LC50 CL [3]: 0.003%

Structure (SMILES): CC(C)C(=Nc1c(F)c(F)c(F)c(F)c1F)OCc1cccc(Oc2ccc(F)cc2F)c1 [Compound 232]
- LC50 TBW E [1]: > 0.1%
- LC50 HF [2]: > 100 µg
- LC50 CL [3]: 0.004%

Structure (SMILES): CC(C)C(=Nc1ccc(C#N)c(F)c1)OCc1cccc(Oc2ccccc2)c1 [Compound 233]
- LC50 TBW E [1]: 0.09%
- LC50 HF [2]: 10 µg
- LC50 CL [3]: 0.0017%

Structure (SMILES): CC(C)C(=Nc1ccc(C(C)(C)C)cc1)OCc1cccc(Oc2ccc(F)cc2)c1 [Compound 235]
- LC50 TBW E [1]: > 0.1%
- LC50 HF [2]: > 100 µg
- LC50 CL [3]: 0.004%

Structure (SMILES): Cc1cc(N=C(OCc2cccc(Oc3ccc(F)cc3)c2)C(C)C)ccc1F [Compound 236]
- LC50 TBW E [1]: 0.06%
- LC50 HF [2]: 7 µg
- LC50 CL [3]: 0.0018%

Structure (SMILES): CC(C)C(=Nc1ccc(Cl)cc1)OCc1cccc(Oc2ccc(Br)cc2)c1 [Compound 237]
- LC50 TBW E [1]: 0.075%
- LC50 HF [2]: 50 µg
- LC50 CL [3]: 0.0006%

Structure (SMILES): CC(C)C(=Nc1ccc2c(c1)OC(C)(C)O2)OCc1cccc(Oc2ccc(Cl)cc2)c1 [Compound 241]
- LC50 TBW E [1]: > 0.1%
- LC50 HF [2]: > 100 µg
- LC50 CL [3]: 0.0004%

Structure (SMILES): CC(C)C(=Nc1ccc2c(c1)CCO2)OCc1cccc(Oc2ccccc2)c1 [Compound 243]
- LC50 TBW E [1]: > 0.1%
- LC50 HF [2]: 9 µg
- LC50 CL [3]: 0.005%

Structure (SMILES): CC(C)C(=Nc1ccc2c(c1)OCO2)OCc1cccc(Oc2ccc(C(F)(F)F)cc2)c1 [Compound 246]
- LC50 TBW E [1]: > 0.1%
- LC50 HF [2]: 60 µg
- LC50 CL [3]: 0.004%

Structure (SMILES): CC(C)C(=Nc1ccc(F)c(Cl)c1)OCc1cccc(Oc2ccc(C(F)(F)F)cc2)c1 [Compound 247]
- LC50 TBW E [1]: > 0.1%
- LC50 HF [2]: > 100 µg
- LC50 CL [3]: 0.009%

Structure (SMILES): COc1cc(N=C(OCc2cccc(Oc3ccccc3)c2)C(C)C)cc(OC)c1OC [Compound 248]
- LC50 TBW E [1]: > 0.1%
- LC50 HF [2]: 40 µg
- LC50 CL [3]: 0.02%

Structure (SMILES): Cc1cccc(N=C(OCc2cccc(Oc3ccccc3)c2)C(C)C)c1C [Compound 249]
- LC50 TBW E [1]: 0.0365%
- LC50 HF [2]: 36 µg
- LC50 CL [3]: 0.0025%

Structure (SMILES): Cc1ccc(C)c(N=C(OCc2cccc(Oc3ccccc3)c2)C(C)C)c1 [Compound 250]
- LC50 TBW E [1]: 0.03%
- LC50 HF [2]: 38 µg
- LC50 CL [3]: 0.004%

Structure (SMILES): CC(C)C(=Nc1ccc(Br)c(Br)c1)OCc1cccc(Oc2ccc(F)cc2)c1 [Compound 251]
- LC50 TBW E [1]: 0.06%
- LC50 HF [2]: 25 µg
- LC50 CL [3]: 0.0005%

Structure (SMILES): CC(C)C(=Nc1ccc(Br)c(Br)c1)OCc1cccc(Oc2ccccc2)c1 [Compound 252]
- LC50 TBW E [1]: 0.04%
- LC50 HF [2]: 34 µg
- LC50 CL [3]: 0.0035%

Structure (SMILES): CC(C)C(=Nc1cccc(Cl)c1)OCc1cccc(Oc2ccc(Br)cc2)c1 [Compound 260]
- LC50 TBW E [1]: > 0.1%
- LC50 HF [2]: 22 µg
- LC50 CL [3]: 0.00075%

Structure (SMILES): CCC(C)C(=Nc1ccc(F)c(Cl)c1)OCc1ccc(F)c(Oc2ccccc2)c1 (stereo not drawn) [Compound 261]
- LC50 TBW E [1]: 0.05%
- LC50 HF [2]: 24 µg
- LC50 CL [3]: 0.001%

Structure (SMILES): Cc1ccc(Cl)cc1N=C(OCc1cccc(Oc2ccccc2)c1)C(C)C [Compound 263]
- LC50 TBW E [1]: > 0.1%
- LC50 HF [2]: > 100 µg
- LC50 CL [3]: 0.05%

Structure (SMILES): COc1ccc(Cl)cc1N=C(OCc1cccc(Oc2ccccc2)c1)C(C)C [Compound 264]
- LC50 TBW E [1]: > 0.1%
- LC50 HF [2]: > 100 µg
- LC50 CL [3]: 0.03%

Structure (SMILES): CC(C)C(=Nc1ccc(F)cc1)OCc1cccc(Oc2ccc(F)c(F)c2)c1 [Compound 265]
- LC50 TBW E [1]: 0.07%
- LC50 HF [2]: 10 µg
- LC50 CL [3]: 0.00025%

Structure (SMILES): CC(C)C(=Nc1cccc(SC(F)(F)F)c1)OCc1cccc(Oc2ccc(F)cc2)c1 [Compound 272]
- LC50 TBW E [1]: > 0.1%
- LC50 HF [2]: > 100 µg
- LC50 CL [3]: 0.0024%

Structure (SMILES): CC(C)C(=Nc1ccc2c(c1)OCO2)OCc1cc(Oc2ccc(F)cc2)ccc1Cl [Compound 274]
- LC50 TBW E [1]: > 0.1%
- LC50 HF [2]: > 100 µg
- LC50 CL [3]: 0.1%

Structure (SMILES): CC(C)C(=Nc1ccc(F)c(F)c1)OCc1cccc(Oc2ccc(Br)cc2)c1 [Compound 275]
- LC50 TBW E [1]: 0.045%
- LC50 HF [2]: 21 µg
- LC50 CL [3]: 0.00012%

Structure (SMILES): CC(C)C(=Nc1ccc(F)c(Br)c1)OCc1cccc(Oc2ccc(Br)cc2)c1 [Compound 276]
- LC50 TBW E [1]: 0.1%
- LC50 HF [2]: 39 µg
- LC50 CL [3]: 0.002%

Structure (SMILES): CC(C)C(=Nc1ccc(C2CCCCC2)cc1)OCc1cccc(Oc2ccc(F)cc2)c1 [Compound 280]
- LC50 TBW E [1]: > 0.1%
- LC50 HF [2]: > 100 µg
- LC50 CL [3]: 0.024%

Structure (SMILES): CC(C)C(=Nc1ccc(C(F)(F)F)cc1)OCc1ccc(F)c(Oc2ccc(F)cc2)c1 [Compound 287]
- LC50 TBW E [1]: > 0.1%
- LC50 HF [2]: > 100 µg
- LC50 CL [3]: 0.0025%

Structure (SMILES): CC(C)C(=Nc1cccc(OC(F)(F)C(F)F)c1)OCc1cccc(Oc2ccc(F)cc2)c1 [Compound 288]
- LC50 TBW E [1]: > 0.1%
- LC50 HF [2]: > 100 µg
- LC50 CL [3]: 0.0015%

Structure (SMILES): CCC(CC)C(=Nc1ccc(Cl)cc1)OCc1cccc(Oc2ccc(F)cc2)c1 [Compound 290]
- LC50 TBW E [1]: > 0.1%
- LC50 HF [2]: > 100 µg
- LC50 CL [3]: 0.017%

Structure (SMILES): CCC(CC)C(=Nc1cccc(C(F)(F)F)c1)OCc1cccc(Oc2ccc(F)cc2)c1 [Compound 291]
- LC50 TBW E [1]: > 0.1%
- LC50 HF [2]: > 100 µg
- LC50 CL [3]: 0.004%

Structure (SMILES): CC(Br)C(=Nc1ccc(F)c(Cl)c1)OCc1cccc(Oc2ccc(F)cc2)c1 (stereo not drawn) [Compound 305]
- LC50 TBW E [1]: > 0.1%
- LC50 HF [2]: > 100 µg
- LC50 CL [3]: 0.048%

Structure (SMILES): CC(C)C(=Nc1ccc(C(C)(C)C)c(Cl)c1)OCc1cccc(Oc2ccc(F)cc2)c1 [Compound 308]
- LC50 TBW E [1]: > 0.1%
- LC50 HF [2]: > 100 µg
- LC50 CL [3]: 0.009%

Structure (SMILES): CC(C)(F)C(=Nc1ccc(F)c(Cl)c1)OCc1cccc(Oc2ccc(F)cc2)c1 [Compound 309]
- LC50 TBW E [1]: 0.07%
- LC50 HF [2]: > 100 µg
- LC50 CL [3]: 0.00017%

Structure (SMILES): CC(C)C(=Nc1ccc(Cl)cc1Cl)OCc1cccc(Oc2ccccc2)c1 [Compound 311]
- LC50 TBW E [1]: 0.1%
- LC50 HF [2]: 22 µg
- LC50 CL [3]: 0.0017%

Structure (SMILES): CC(C)C(=Nc1ccc(Cl)cc1Cl)OCc1cccc(Oc2ccc(F)cc2)c1 [Compound 312]
- LC50 TBW E [1]: > 0.1%
- LC50 HF [2]: > 100 µg
- LC50 CL [3]: 0.006%

Structure (SMILES): CC(C)C(=Nc1ccc2c(c1)OCO2)OCc1ccc(F)c(Oc2ccc(Cl)cc2)c1 [Compound 313]
- LC50 TBW E [1]: 0.013%
- LC50 HF [2]: > 100 µg
- LC50 CL [3]: 0.00025%

Structure (SMILES): CCC(C)C(=Nc1ccc(C(C)C)cc1)OCc1cccc(Oc2ccccc2)c1 (stereo not drawn) [Compound 317]
- LC50 TBW E [1]: 0.03%
- LC50 HF [2]: > 100 µg
- LC50 CL [3]: 0.0045%

Structure (SMILES): CC(C)(F)C(=Nc1ccc(F)c(F)c1)OCc1cccc(Oc2ccc(F)cc2)c1 [Compound 318]
- LC50 TBW E [1]: > 0.1%
- LC50 HF [2]: 19 µg
- LC50 CL [3]: 0.0007%

Structure (SMILES): CC(C)(F)C(=Nc1cccc(C(F)(F)F)c1)OCc1cccc(Oc2ccc(F)cc2)c1 [Compound 319]
- LC50 TBW E [1]: > 0.1%
- LC50 HF [2]: 44 µg
- LC50 CL [3]: 0.0007%

From patent US5089623A, “Certain imidate insecticides” (Imperial Chemical Industries Plc, priority 1990, dated 1992)
